From ChEMBL document CHEMBL2073953, “The anthelminthic agent albendazole does not interact with p-glycoprotein” (Drug Metab Dispos, 2002) come the findings set out here.

Data set [1] deals with P-glycoprotein 1 and 3 (MDR1a/MDR1b) (Mus musculus, UniProt P21447+P06795). Description: TP_TRANSPORTER: tissue distribution in mdr1a/1b(-/-) mouse. The data set is classed as functional, organism-based. To be noted: in vivo.
Data set [2] concerns the target T1, ATP-dependent translocase ABCB1 (Homo sapiens, UniProt P08183). Description: TP_TRANSPORTER: inhibition of Digoxin transepithelial transport (basal to apical) (Digoxin: 5 uM, Albendazole: 100 uM) in MDR1-expressing LLC-PK1 cells. To be noted: pig, llc-pk1, 100 µM. The class given is functional, cell-based.
Data set [3] has as its target T1, ATP-dependent translocase ABCB1. Description: TP_TRANSPORTER: transepithelial transport (basal to apical) in MDR1-expressing LLC-PK1 cells. The data set is classed as functional, cell-based. To be noted: pig.

T1 sequence (P08183 whole entry): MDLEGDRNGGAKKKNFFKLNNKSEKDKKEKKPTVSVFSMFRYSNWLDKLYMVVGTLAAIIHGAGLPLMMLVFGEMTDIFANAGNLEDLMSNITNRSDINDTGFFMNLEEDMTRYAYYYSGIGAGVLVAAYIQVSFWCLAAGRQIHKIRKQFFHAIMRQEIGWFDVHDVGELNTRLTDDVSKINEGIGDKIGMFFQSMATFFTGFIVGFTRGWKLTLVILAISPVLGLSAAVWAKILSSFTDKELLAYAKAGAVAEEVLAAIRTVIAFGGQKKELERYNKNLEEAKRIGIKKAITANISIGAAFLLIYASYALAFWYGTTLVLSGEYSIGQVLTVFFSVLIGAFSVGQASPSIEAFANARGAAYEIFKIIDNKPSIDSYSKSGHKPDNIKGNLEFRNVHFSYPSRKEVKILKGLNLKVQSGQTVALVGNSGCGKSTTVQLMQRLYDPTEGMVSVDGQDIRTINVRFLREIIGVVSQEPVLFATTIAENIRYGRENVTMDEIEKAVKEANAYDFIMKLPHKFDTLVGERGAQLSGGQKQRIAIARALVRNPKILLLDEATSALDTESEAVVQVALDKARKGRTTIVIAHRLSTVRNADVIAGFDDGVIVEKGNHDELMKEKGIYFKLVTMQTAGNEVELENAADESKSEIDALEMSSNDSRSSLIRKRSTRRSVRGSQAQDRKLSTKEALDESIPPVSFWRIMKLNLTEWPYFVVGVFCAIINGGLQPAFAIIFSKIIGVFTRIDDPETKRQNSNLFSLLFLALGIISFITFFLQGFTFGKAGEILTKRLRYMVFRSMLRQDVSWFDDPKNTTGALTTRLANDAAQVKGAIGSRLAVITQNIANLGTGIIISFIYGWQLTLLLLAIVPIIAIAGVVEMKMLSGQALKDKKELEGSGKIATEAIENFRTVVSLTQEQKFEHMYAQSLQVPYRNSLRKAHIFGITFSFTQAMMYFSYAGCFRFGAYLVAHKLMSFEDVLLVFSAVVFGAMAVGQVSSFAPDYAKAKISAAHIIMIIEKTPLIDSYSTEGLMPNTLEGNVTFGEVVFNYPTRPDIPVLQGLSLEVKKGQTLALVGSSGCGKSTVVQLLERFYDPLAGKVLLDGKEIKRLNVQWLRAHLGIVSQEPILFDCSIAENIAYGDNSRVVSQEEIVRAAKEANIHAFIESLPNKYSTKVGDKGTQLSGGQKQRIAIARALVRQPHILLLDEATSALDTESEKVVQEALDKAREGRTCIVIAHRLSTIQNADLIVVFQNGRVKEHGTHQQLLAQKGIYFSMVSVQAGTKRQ

As for `CCCSc1ccc2nc(NC(=O)OC)[nH]c2c1` [ALBENDAZOLE], the results for the Activity entry in data set [1], in data set [2] and in data set [3] were “is not a substrate [-]”, “is not an inhibitor [-]” and “is not a substrate [-]”, respectively.
